Data reported in patent EP4740950A1, “PROPHYLACTIC OR AMELIORATING AGENT FOR CACHEXIA” (The University of Osaka, priority 2023, dated 2025).

Experiments:
myoblasts (C2C12) = test: in vitro differentiation induction of myoblasts (C2C12) into skeletal muscle cells in medium containing Colon26 culture supernatant (myotube formation); assay type: cell-based, Mouse; settings: Colon26 cells treated at 25 µM for 24 hours; 50% supernatant in horse serum-supplemented DMEM; C2C12 observed on day 9, phase-contrast microscope
Protocol: Mouse myoblasts (C2C12, RIKEN cell bank) and mouse colon cancer cells (Colon26, RIKEN cell bank) were used. The culture medium used was DMEM medium (Sigma-Aldrich Japan) or RPMI medium (Sigma-Aldrich Japan) supplemented with 10% fetal bovine serum (Gibco), 100 units/mL penicillin G (Sigma-Aldrich Japan) and 100 µg/mL streptomycin (Sigma-Aldrich Japan).
(§1) Colon26 cells were seeded at a concentration of 5 × 10^4 cells/cm^2 in a culture dish with a diameter of 10 mm, and cultured at 37°C, 5% CO2 to 80% to 90% confluency. The medium was then changed to a medium supplemented with 16:0 lysophosphatidylcholine (hereinafter referred to as LPC), 18:0 LPC, 16:0 phosphatidylcholine (hereinafter referred to as PC), or 18:0 PC (all manufactured by Avanti Polar Lipids) at a final concentration of 25 µM, or a medium not containing LPC or PC. The cells were cultured for another 24 hours. After the cells were washed with PBS, the medium was changed to serum-free RPMI medium, and the cells were cultured for another 48 hours. The medium was collected and centrifuged at 4°C and 3000 rpm for 20 minutes to precipitate the cellular components. The supernatant was sterile-filtered using a 0.22 µm sterile filter (Merck Millipore) and stored at -80°C until use.
C2C12 cells were cultured to 80% to 90% confluency in a 6-well culture plate. The medium was changed to DMEM medium supplemented with horse serum (Gibco, final concentration: 2%) or horse serum-supplemented DMEM medium containing 50% supernatant of one of the five types prepared in the above (2), and the cells were cultured for 9 days to induce differentiation into skeletal muscle cells. On day 9, the morphology of the cells was observed under a phase-contrast microscope.

Mesenchymal OP9 cells = test: in vitro differentiation induction of mesenchymal cells (OP9) into adipocytes in medium containing Colon26 culture supernatant (Oil Red O staining); assay type: cell-based; settings: Colon26 cells treated at 25 µM; 10% supernatant in adipocyte differentiation medium; OP9 observed on day 7
Protocol: as §1
Mesenchymal OP9 cells (RIKEN cell bank) were used. The culture medium used was MEM medium (Sigma-Aldrich Japan) supplemented with 20% fetal bovine serum (Gibco), 100 units/mL penicillin G (Sigma-Aldrich Japan), 100 µg/mL streptomycin (Sigma-Aldrich Japan), and 2 mM L-glutamine.
OP9 cells were seeded at a concentration of 7 × 10^3 cells/cm^2 in a 96-well culture plate and cultured to confluency. […]

IL-6 = IL-6 levels in culture supernatant of colon cancer cells (Colon26) treated with PC or PS (ELISA); assay type: cell-based, mouse; settings: 16:0 PC or 18:0 PC 25 µM, PS 100 µg/ml, 24 hours; then 48 hours in serum-free RPMI
Protocol: Colon26 cells were seeded at a concentration of 5 × 10^4 cells/cm^2 in the medium used in Example 1 in a culture dish with a diameter of 10 mm, and cultured at 37°C, 5% CO2 to 80% to 90% confluency. To the culture dish, 16:0 PC or 18:0 PC was added at a final concentration of 25 µM, and PS (Larodan) was added at a final concentration of 100 µg/ml. The cells were cultured for 24 hours. After the cells were washed with PBS, the medium was changed to serum-free RPMI medium (Wako), and the cells were cultured for another 48 hours. The medium was collected and centrifuged at 4°C and 3000 rpm for 20 minutes to precipitate the cellular components. The supernatant was filtered through a 0.22 µm sterile filter to remove precipitates from the supernatant. The […] IL-6 level in the supernatant was measured using LEGEND MAX Mouse IL-6 ELISA Kit (BioLegend).

[1] = system: tumor-bearing mice (Colon26); test: muscle weight in Colon26 tumor-bearing mice, intravenous PC; assay type: in vivo; settings: 3 mg/kg via the tail vein every 3 or 4 days from one week after transplantation; day 36 post-transplantation
Protocol: (§2) Male BalB/c mice (SLC) at 8 to 9 weeks old were used. Colon26 cells were cultured to 80% to 90% confluency in the same manner as in Example 1 and suspended in PBS to a concentration of 1 × 10^6 cells/mL. Then, 100 µL of the cell suspension was subcutaneously transplanted into the right upper flank of the mice. Every 3 or 4 days, the body weight of the mice was measured, and the general conditions of the mice were observed. The tumor size [1/2(a × b^2) mm^3] was calculated by measuring the maximum diameter (a) and the minimum diameter (b) of the tumor.
(§3) Hydrogenated PC (HSPC; Avanti Polar Lipids) was dissolved in ethanol to a concentration of 50 mM and stored at -20°C until use.
(§4) We set up three groups of mice: a non-cancer cell transplantation group (control), a cancer cell transplantation group with administration of a solvent (PBS), and a cancer cell transplantation group with administration of PC (PC). […]
(§5) The mice were euthanized on day 36 post-transplantation of Colon26 cells, and the gastrocnemius and tibialis muscles were harvested to measure the weight. Twenty milligrams of each muscle tissue was homogenized using High Power Homogenizer ASG50 (AS ONE Corporation), and the total RNA was recovered using RNeasy Fibrous Mini Kit (Qiagen). cDNA was synthesized from the total RNA using PrimeScript RT reagent Kit (Takara) and subjected to quantitative PCR (qPCR). […]

MuRF-1 gene = test: quantitative PCR of MuRF-1 gene in muscle of Colon26 tumor-bearing mice, intravenous PC; assay type: in vivo, mouse; settings: 3 mg/kg via the tail vein every 3 or 4 days, day 36 post-transplantation
Protocol: as §2, §3, §4, §5

Atrogin-1 gene = test: quantitative PCR of Atrogin-1 gene in muscle of Colon26 tumor-bearing mice, intravenous PC; assay type: in vivo, mouse; settings: 3 mg/kg via the tail vein every 3 or 4 days, day 36 post-transplantation
Protocol: as §2, §3, §4, §5

[2] = system: tumor-bearing mice (Colon26); test: weight of epididymal fat tissue in Colon26 tumor-bearing mice, intravenous PC; assay type: in vivo; settings: 3 mg/kg via the tail vein every 3 or 4 days; day 36 post-transplantation
Protocol: (§6) Mice were transplanted with Colon26 cells in the same manner as in Example 3, and one week later, divided into three groups: a non-cancer cell transplantation group (control), a cancer cell transplantation group with administration of a solvent (PBS, n = 20), and a cancer cell transplantation group with administration of PC (PC, n = 20). PC and a solvent (PBS) were administered by the same dosing schedule as that in Example 3. During the dosing period, the general conditions of the mice were observed every day. The survival rate was calculated by counting the number of dead individuals. The surviving mice were euthanized on day 36 post-transplantation of Colon26 cells, and the epididymal fat tissue was harvested to measure the weight (groups of n = 8 each). Total RNA was recovered from less than 100 mg of the epididymal fat tissue, and cDNA was synthesized and subjected to qPCR in the same manner as in Example 3 (groups of n = 2 each). The reagents and devices were the same as those used in Example 3. The primer set shown below was used to detect the Leptin gene, which is known to have the function of maintaining fat tissue. The primer set for amplification of the mouse GAPDH gene was the same as that used in Example 3.

Leptin gene = test: quantitative PCR of Leptin gene in epididymal fat tissue of Colon26 tumor-bearing mice, intravenous PC; assay type: in vivo, mouse; settings: 3 mg/kg via the tail vein every 3 or 4 days, day 36 post-transplantation
Protocol: as §6
Primer set for amplification of mouse Leptin gene: • sense 5'-[…]-3' (SEQ ID NO: 7), and • anti-sense 5'-GCCATCCAGGCTCTCTGG-3' (SEQ ID NO: 8).

[3] = system: tumor-bearing mice (Colon26); test: survival rate of Colon26 tumor-bearing mice, intravenous PC; assay type: in vivo; settings: 3 mg/kg via the tail vein every 3 or 4 days; compared with solvent (PBS) group
Protocol: as §6

## CCCCCCCCCCCCCCCC(=O)OCC(O)COP(=O)([O-])OCC[N+](C)(C)C (stereo not drawn) [16:0 LPC, 16:0 lysophosphatidylcholine]
Myoblasts (C2C12)
  myotube formation: myotube formation was observed
Mesenchymal OP9 cells
  adipocyte differentiation (Oil Red O): inhibition of adipocyte differentiation was prevented

## CCCCCCCCCCCCCCCC(=O)OCC(COP(=O)([O-])OCC[N+](C)(C)C)OC(=O)CCCCCCCCCCCCCCC (stereo not drawn) [16:0 PC, 16:0 phosphatidylcholine]
Myoblasts (C2C12)
  myotube formation: myotube formation was observed
IL-6
  IL-6 levels in the culture supernatant of Colon26 cells: direct inhibitory effect on the expression of IL-6 in cancer cells

## CCCCCCCCCCCCCCCCCC(=O)OCC(O)COP(=O)([O-])OCC[N+](C)(C)C (stereo not drawn) [18:0 LPC]
Myoblasts (C2C12)
  myotube formation: myotube formation was observed

## CCCCCCCCCCCCCCCCCC(=O)OCC(COP(=O)([O-])OCC[N+](C)(C)C)OC(=O)CCCCCCCCCCCCCCCCC (stereo not drawn) [18:0 PC]
Myoblasts (C2C12)
  myotube formation: myotube formation was observed
IL-6
  IL-6 levels in the culture supernatant of Colon26 cells: direct inhibitory effect on the expression of IL-6 in cancer cells

## Hydrogenated PC
[1]
  weight of the gastrocnemius muscle (Gastrocnemius): muscle weight loss was not observed
  weight of the tibialis muscle (Tibialis): muscle weight loss was not observed
MuRF-1 gene
  expression of the MuRF-1 gene: comparable to that in normal mice
Atrogin-1 gene
  expression of the Atrogin-1 gene: comparable to that in normal mice
[2]
  weight of the epididymal fat tissue: weight loss in the fat tissue was not observed
Leptin gene
  expression of the Leptin gene: comparable to that in normal mice
[3]
  survival rate: improved

## phosphatidylserine [PS]
IL-6
  IL-6 levels in the culture supernatant of Colon26 cells: direct inhibitory effect on the expression of IL-6 in cancer cells
